Laboratory results: ChEMBL document CHEMBL3217457, “Carbazolepyrrolo[2,1-c][1,4]benzodiazepine conjugates: design, synthesis, and biological evaluation” (Medchemcomm, 2011)
Active and inactive are the calls of the source. No cut-off for these calls is given here.

What was measured:
[1] = test system: MCF7; assay: Cytotoxicity against human MCF7 cells by ATP-dependent cell viability assay; type: functional, cell-based
[2] = test system: MCF7; assay: Downregulation of c-Jun protein expression in human MCF7 cells at 4 uM after 24 hrs by Western blot analysis; type: functional, cell-based
[3] = test system: PC-3; assay: Anticancer activity against human PC3 cells xenografted in NOD-SCID mouse assessed as decrease in tumor weight at 20 mg/kg, iv q4d on days 1, 5 and 9; type: functional, organism-based; set-up: dose 20 mg/kg
[4] = test system: MCF7; assay: Induction of apoptosis in human MCF7 cells assessed as pRb protein expression at 4 uM after 24 hrs by Western blot analysis; type: functional, cell-based
[5] = test system: MCF7; assay: Cell cycle arrest in human MCF7 cells assessed as accumulation at G0/G1 phase at 4 uM after 24 hrs by propidium iodide staining based flow cytometry (reference value: 60.75%); type: functional
[6] = test system: MCF7; assay: Cell cycle arrest in human MCF7 cells assessed as accumulation at G1 phase at 4 uM after 24 hrs by propidium iodide staining based flow cytometry (reference value: 57.98%); type: functional
[7] = test system: Calf thymus DNA; assay: Binding affinity to calf thymus DNA assessed as change in melting temperature at compound to DNA ratio of 1:5 after 18 hrs by thermal denaturation analysis; type: nucleic-acid assay; conditions: Bos taurus
[8] = test system: MCF7; assay: Cell cycle arrest in human MCF7 cells assessed as accumulation at G0 phase at 4 uM after 24 hrs by propidium iodide staining based flow cytometry (reference value: 2.77%); type: functional
[9] = test system: MCF7; assay: Induction of apoptosis in human MCF7 cells assessed as procaspase-7 cleavage at 4 uM after 24 hrs by Western blot analysis; type: functional, cell-based
[10] = test system: COLO 205; assay: Growth inhibition of human COLO205 cells; type: functional
[11] = test system: MCF7; assay: Upregulation of PARP protein expression in human MCF7 cells at 4 uM after 24 hrs by Western blot analysis; type: functional, cell-based
[12] = Growth inhibition of human Gurav cells; type: functional
[13] = test system: MCF7; assay: Downregulation of CREB protein expression in human MCF7 cells at 4 uM after 24 hrs by Western blot analysis; type: functional, cell-based
[14] = Toxicity in iv dosed NOD-SCID mouse xenografted with human PC3 cells assessed as maximum tolerated dose administered q4d on days 1, 5 and 9; type: organism-based, PC-3; conditions: in vivo
[15] = test system: MCF7; assay: Downregulation of CDK4 protein expression in human MCF7 cells at 4 uM after 24 hrs by Western blot analysis; type: functional, cell-based
[16] = test system: MCF7; assay: Cytotoxicity against human MCF7 cells assessed as decrease in cell viability at 4 uM after 24 hrs by MTT assay; type: functional, cell-based
[17] = test system: MCF7; assay: Induction of apoptosis in human MCF7 cells assessed as Apoalert DNA fragmentation at 4 uM after 24 hrs by TUNEL assay; type: functional, cell-based
[18] = test system: MCF7; assay: Cytotoxicity against human MCF7 cells assessed as decrease in cell viability at 2 to 16 uM after 6 to 48 hrs by MTT assay; type: functional, cell-based
[19] = test system: PC-3; assay: Anticancer activity against human PC3 cells xenografted in NOD-SCID mouse assessed as decrease in tumor volume at 20 mg/kg, iv q4d on days 1, 5 and 9; type: functional, organism-based; set-up: dose 20 mg/kg
[20] = test system: MCF7; assay: Growth inhibition of human MCF7 cells; type: functional
[21] = test system: Mus musculus; assay: Toxicity in NOD-SCID mouse xenografted with human PC3 cells assessed as mortality at 20 mg/kg, iv q4d on days 1, 5 and 9; type: organism-based, PC-3; set-up: dose 20 mg/kg, route intravenous; conditions: in vivo
[22] = test system: A549; assay: Growth inhibition of human A549 cells; type: functional
[23] = test system: A2780; assay: Growth inhibition of human A2780 cells; type: functional
[24] = test system: MCF7; assay: Downregulation of cyclin D1 protein expression in human MCF7 cells at 2 to 4 uM after 24 hrs by Western blot analysis; type: functional, cell-based
[25] = test system: PC-3; assay: Growth inhibition of human PC3 cells; type: functional
[26] = test system: MCF7; assay: Cell cycle arrest in human MCF7 cells assessed as accumulation at G2/M phase at 4 uM after 24 hrs by propidium iodide staining based flow cytometry (reference value: 24.95%); type: functional
[27] = test system: KB; assay: Growth inhibition of human KB cells; type: functional
[28] = test system: MCF7; assay: Upregulation of Bax protein expression in human MCF7 cells at 4 uM after 24 hrs by Western blot analysis; type: functional, cell-based
[29] = test system: MCF7; assay: Antiproliferative activity against human MCF7 cells assessed as cell proliferation at 4 uM after 24 hrs by BrdU incorporation assay (reference value: 100%); type: functional; conditions: MCF7, 24 h, read-out: Activity
[30] = test system: MCF7; assay: Upregulation of p53 protein expression in human MCF7 cells at 4 uM after 24 hrs by Western blot analysis; type: functional, cell-based
[31] = test system: MCF7; assay: Downregulation of Jun B protein expression in human MCF7 cells at 4 uM after 24 hrs by Western blot analysis; type: functional, cell-based
[32] = test system: MCF7; assay: Upregulation of JNK1/2 protein expression in human MCF7 cells at 4 uM after 24 hrs by Western blot analysis; type: functional, cell-based
[33] = test system: Mus musculus; assay: Toxicity in NOD-SCID mouse xenografted with human PC3 cells assessed as weight loss at 20 mg/kg, iv q4d on days 1, 5 and 9; type: organism-based, PC-3; set-up: dose 20 mg/kg, route intravenous; conditions: in vivo
[34] = test system: ZR-75-1; assay: Growth inhibition of human ZR-75-1 cells; type: functional
[35] = test system: HOP-62; assay: Growth inhibition of human HOP62 cells; type: functional
[36] = test system: SiHa; assay: Growth inhibition of human SiHa cells; type: functional
[37] = test system: MCF7; assay: Cell cycle arrest in human MCF7 cells assessed as accumulation at S phase at 4 uM after 24 hrs by propidium iodide staining based flow cytometry (reference value: 14.30%); type: functional

Structure (SMILES): COc1ccc(-c2ccc3c(c2)c2cc(-c4ccc(OC)cc4)ccc2n3CCCCN2CCN(CCCCOc3cc4c(cc3OC)C(=O)N3CCC[C@H]3C=N4)CC2)cc1
- inhibition [1]: Active
- inhibition [2]: Active
- inhibition [3]: Active
- Activity [4]: Active
- Activity [5]: 88.34%
- Activity [6]: 63.03%
- ΔTm [7]: 10.2 °C
- Activity [8]: 25.31%
- Activity [9]: Active
- GI50 [10]: 70 nM
- Activity [11]: Active
- GI50 [12]: 110 nM
- inhibition [13]: Active
- MTD [14]: < 50 mg/kg
- inhibition [15]: Active
- inhibition [16]: Active
- Activity [17]: Active
- inhibition [18]: Active
- inhibition [19]: Active
- GI50 [20]: 10 nM
- Activity [21]: Non-toxic
- GI50 [22]: 90 nM
- GI50 [23]: 10 nM
- inhibition [24]: Active
- GI50 [25]: 10 nM
- Activity [26]: 6.2%
- GI50 [27]: 100 nM
- Activity [28]: Active
- growth at 4 µM [29]: 28%
- Activity [30]: Active
- inhibition [31]: Active
- Activity [32]: Active
- Activity [33]: Non-toxic
- GI50 [34]: 120 nM
- GI50 [35]: 10 nM
- GI50 [36]: 110 nM
- Activity [37]: 5.44%
